In PubChem BioAssay AID2060909 (Molecular Pharmacology Branch, DTP, NCI, 2025):
Values belong to the molecule of their own block, whether it stands above or below them.

Tested on: 362531-283-R-J2-PDC complex spheroid viability
Assay: Anticancer human tumor 362531-283-R-J2-PDC patient-derived colon adenocarcinoma cell line growth inhibition [RAS]
Conditions: for IC50: curve of first compound; for viability, T/C: stronger effect = lower value
Source text: RAS pathway inhibitors in Combinations in Complex Spheroids
A high-throughput screen of multi-cell type tumor spheroids was designed to identify active combinations of RAS pathway inhibitors and targeted small molecules. Complex spheroids include a stromal component modeled by human endothelial cells (HUVEC) and fibroblasts modeled by human mesenchymal stem cells (MSCs). The concentration ranges selected for each drug and investigational agent were based upon clinically achievable concentrations if the clinical Cmax of the agent was known.
Compounds. The drugs and investigational agents: abemaciclib (NSC768073), cobimetinib (NSC768068), divarasib (GDC6063, NSC841802), docetaxel (NSC628503), GDC-1971 (RLY-1971, NSC841576), gemcitabine (NSC613327), inavolisib (NSC800729), ipatasertib (NSC767898), KB-0742 (NSC834161), MRTX-1133 (NSC836407), osimertinib (NSC779217), RMC-4630 (NSC839698), RMC-6236 (NSC851965), RMC-6291 (NSC852671), Ro-3306 (NSC812927), sapanisertib (NSC764658), SN-38 (NSC673596), staurosporine (NSC755774), SY5609 (NSC837396), and tovorafenib (DAY101, NSC766906), were obtained from the National Cancer Institute (NCI) Developmental Therapeutics Program Chemical Repository. The FDA-approved anticancer drug set is available from the NCI Developmental Therapeutics Program. […] The stock solutions were prepared in dimethyl sulfoxide (DMSO, Sigma-Aldrich, St. Louis, MO, cat. D2650) at 800-fold the tested concentration and stored at -70 degrees C prior to their use. All drugs and investigational agents were tested over a range starting from a high concentration at or near the clinical Cmax and decreasing in half-log increments. If the clinical Cmax for an agent had not been determined, the highest concentration tested was 10 microM.
Cell Culture. All cells were maintained in an incubator at 37 degrees C and 5% CO2 with 95% humidity. The PDC lines were cultured according to standard operating procedures established by the NCI PDMR. All PDCs were thawed and cultured in Matrigel-coated flasks prepared with a working solution of 1X Ham's F-12 nutrient mix, without supplementation (Invitrogen, Waltham, MA, cat. 11765054), 100 U/mL penicillin-streptomycin (Invitrogen, cat. 15140122), and 2.5% Matrigel (Corning Inc., Corning, NY, cat. 354248) for the first three passages. The 362531-283-R-J2-PDC and 782815-120-R-J1-PDC lines were cultured in 6C/Colon 1B media, which includes advanced DMEM/F-12 (Thermo Fisher Scientific, cat. 12634028), 10 mM HEPES (Thermo Fisher Scientific, cat. 15630080), 1X GlutaMAX supplement (Thermo Fisher Scientific, cat. 35050061), 0.1 mg/mL primocin (InvivoGen, San Diego, CA, cat. ant-pm-2), 10% defined fetal bovine serum, heat inactivated (HyClone Laboratories Inc., Logan, UT, cat. SH30070.03HI), 50% L-WRN conditioned media (ATCC, cat. CRL-3276), 1.25 mM N-Acetyl-L-cysteine (Sigma-Aldrich, cat. A9165), 10 mM nicotinamide (Sigma-Aldrich, cat. N0636), 1X B-27 supplement (Thermo Fisher Scientific, cat. 17504044), 1X N-2 supplement (Thermo Fisher Scientific, cat. 17502048), 50 ng/mL human EGF (Thermo Fisher Scientific, cat. PHG0311), and 10 microM Y-27632 dihydrochloride (Tocris Bioscience, cat. 1254). The K12877-001-R-J1-PDC line was cultured in 6I media, which includes all 6C/Colon 1B media plus 10 ng/mL human FGF-10 (PeproTech, cat. 100-26), 1 ng/mL human FGF-2 (PeproTech, cat. 100-18B), 1 µM prostaglandin E2 (Tocris Bioscience, cat. 2296), […] hydrocortisone (Sigma-Aldrich, cat. H4001), and […] bovine insulin (Sigma-Aldrich, cat. I6634). The K86415-001-R-J1-PDC line was cultured in 6D media, which includes all 6C/Colon 1B media components minus the L-WRN conditioned media. The 485176-168-R4-J1-PDC was cultured in PANC media, which includes all 6C/Colon 1B media plus 100 ng/mL human FGF-10 (PeproTech, cat. 100-26), 500 nM SB-431542 (Selleckchem, cat. S1067), and 10 nM gastrin (Tocris Bioscience, cat. 3006). […]
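Note: spheroids exposed to the agents for 7 days before readout.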
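Throughout, for viability, T/C: luminescence viability as percent of DMSO vehicle control wells.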

IC50 (second compound 0.00316 µM): 129 nM
IC50 (second compound 0.01 µM): 169 nM
IC50 (second compound 0.0316 µM): 154 nM
IC50 (second compound 0.1 µM): 130 nM
IC50 (second compound 0.316 µM): 180 nM
IC50 (second compound 1 µM): 144 nM
Structure (SMILES): Nc1ccn(C2OC(CO)C(O)C2(F)F)c(=O)n1 (centres undefined) + C=CC(=O)N1CCN(c2nc(OCC3CCCN3C)nc3c(F)c(-c4nc(N)cc(C)c4C(F)(F)F)c(Cl)cc23)C(C)C1
viability, T/C (second compound 0.00316 µM, first compound 0.00316 µM): 107%
viability, T/C (second compound 0.00316 µM, first compound 0.01 µM): 100%
viability, T/C (second compound 0.00316 µM, first compound 0.0316 µM): 81.2%
viability, T/C (second compound 0.00316 µM, first compound 0.1 µM): 61.8%
viability, T/C (second compound 0.00316 µM, first compound 0.316 µM): 22.7%
viability, T/C (second compound 0.00316 µM, first compound 1 µM): 29.7%
viability, T/C (second compound 0.01 µM, first compound 0.00316 µM): 93.5%
viability, T/C (second compound 0.01 µM, first compound 0.01 µM): 95.3%
viability, T/C (second compound 0.01 µM, first compound 0.0316 µM): 80.9%
viability, T/C (second compound 0.01 µM, first compound 0.1 µM): 70%
viability, T/C (second compound 0.01 µM, first compound 0.316 µM): 21.7%
viability, T/C (second compound 0.01 µM, first compound 1 µM): 30.7%
viability, T/C (second compound 0.0316 µM, first compound 0.00316 µM): 93.5%
viability, T/C (second compound 0.0316 µM, first compound 0.01 µM): 91%
viability, T/C (second compound 0.0316 µM, first compound 0.0316 µM): 87.7%
viability, T/C (second compound 0.0316 µM, first compound 0.1 µM): 64.9%
viability, T/C (second compound 0.0316 µM, first compound 0.316 µM): 23.6%
viability, T/C (second compound 0.0316 µM, first compound 1 µM): 27%
viability, T/C (second compound 0.1 µM, first compound 0.00316 µM): 94.9%
viability, T/C (second compound 0.1 µM, first compound 0.01 µM): 94.9%
viability, T/C (second compound 0.1 µM, first compound 0.0316 µM): 77.4%
viability, T/C (second compound 0.1 µM, first compound 0.1 µM): 61%
viability, T/C (second compound 0.1 µM, first compound 0.316 µM): 23.6%
viability, T/C (second compound 0.1 µM, first compound 1 µM): 31.7%
viability, T/C (second compound 0.316 µM, first compound 0.00316 µM): 93.8%
viability, T/C (second compound 0.316 µM, first compound 0.01 µM): 97.1%
viability, T/C (second compound 0.316 µM, first compound 0.0316 µM): 89.4%
viability, T/C (second compound 0.316 µM, first compound 0.1 µM): 75.7%
viability, T/C (second compound 0.316 µM, first compound 0.316 µM): 23.3%
viability, T/C (second compound 0.316 µM, first compound 1 µM): 27.6%
viability, T/C (second compound 1 µM, first compound 0.00316 µM): 105%
viability, T/C (second compound 1 µM, first compound 0.01 µM): 97.9%
viability, T/C (second compound 1 µM, first compound 0.0316 µM): 78.9%
viability, T/C (second compound 1 µM, first compound 0.1 µM): 65.2%
viability, T/C (second compound 1 µM, first compound 0.316 µM): 25.1%
viability, T/C (second compound 1 µM, first compound 1 µM): 29.7%

IC50 (second compound 0.000949 µM): 1530 nM
IC50 (second compound 0.003 µM): 1290 nM
IC50 (second compound 0.00949 µM): 1680 nM
IC50 (second compound 0.03 µM): 2090 nM
IC50 (second compound 0.0949 µM): 1650 nM
IC50 (second compound 0.3 µM): 1510 nM
Structure (SMILES): CC(Nc1ccc2c(c1)OCCn1cc(N3C(=O)OCC3C(F)F)nc1-2)C(N)=O (centres undefined) + CCn1c(-c2cccnc2C(C)OC)c2c3cc(ccc31)N1CCOC(CC(NC(=O)C(C(C)C)N(C)C(=O)C3(F)CCN(C(=O)C#CC(C)(C)N(C)C)CC3)C(=O)N3CCCC(N3)C(=O)OCC(C)(C)C2)C1
viability, T/C (second compound 0.000949 µM, first compound 0.0316 µM): 103%
viability, T/C (second compound 0.000949 µM, first compound 0.1 µM): 107%
viability, T/C (second compound 0.000949 µM, first compound 0.316 µM): 92.1%
viability, T/C (second compound 0.000949 µM, first compound 1 µM): 59.6%
viability, T/C (second compound 0.000949 µM, first compound 3.16 µM): 34.2%
viability, T/C (second compound 0.000949 µM, first compound 10 µM): 29%
viability, T/C (second compound 0.003 µM, first compound 0.0316 µM): 106%
viability, T/C (second compound 0.003 µM, first compound 0.1 µM): 95.5%
viability, T/C (second compound 0.003 µM, first compound 0.316 µM): 92.9%
viability, T/C (second compound 0.003 µM, first compound 1 µM): 52.4%
viability, T/C (second compound 0.003 µM, first compound 3.16 µM): 36.8%
viability, T/C (second compound 0.003 µM, first compound 10 µM): 24.4%
viability, T/C (second compound 0.00949 µM, first compound 0.0316 µM): 95.4%
viability, T/C (second compound 0.00949 µM, first compound 0.1 µM): 106%
viability, T/C (second compound 0.00949 µM, first compound 0.316 µM): 87.8%
viability, T/C (second compound 0.00949 µM, first compound 1 µM): 62.4%
viability, T/C (second compound 0.00949 µM, first compound 3.16 µM): 35.7%
viability, T/C (second compound 0.00949 µM, first compound 10 µM): 28.4%
viability, T/C (second compound 0.03 µM, first compound 0.0316 µM): 98.4%
viability, T/C (second compound 0.03 µM, first compound 0.1 µM): 96.5%
viability, T/C (second compound 0.03 µM, first compound 0.316 µM): 87.1%
viability, T/C (second compound 0.03 µM, first compound 1 µM): 65.3%
viability, T/C (second compound 0.03 µM, first compound 3.16 µM): 41.7%
viability, T/C (second compound 0.03 µM, first compound 10 µM): 24.9%
viability, T/C (second compound 0.0949 µM, first compound 0.0316 µM): 93.9%
viability, T/C (second compound 0.0949 µM, first compound 0.1 µM): 91.4%
viability, T/C (second compound 0.0949 µM, first compound 0.316 µM): 88.5%
viability, T/C (second compound 0.0949 µM, first compound 1 µM): 60.5%
viability, T/C (second compound 0.0949 µM, first compound 3.16 µM): 36.1%
viability, T/C (second compound 0.0949 µM, first compound 10 µM): 24.5%
viability, T/C (second compound 0.3 µM, first compound 0.0316 µM): 93.4%
viability, T/C (second compound 0.3 µM, first compound 0.1 µM): 85.5%
viability, T/C (second compound 0.3 µM, first compound 0.316 µM): 83%
viability, T/C (second compound 0.3 µM, first compound 1 µM): 56.9%
viability, T/C (second compound 0.3 µM, first compound 3.16 µM): 36.6%
viability, T/C (second compound 0.3 µM, first compound 10 µM): 28%
